Each structure is given as a SMILES string.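 The compound was tested at five concentrations on cells cultured in 96-well plates, with a 48-hour exposure period. Definition used: TGI = concentration required for complete inhibition of growth.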 Some results are limits rather than exact numbers.

Consider seven molecules from PubChem BioAssay (NCI).

Common to all, as to experiment: inhibition of tumour cell growth, NCI panel, 48 h
For experiment [1], the system named is HOP-62 NSCLC.
For experiment [2], the system named is SN12C renal.
The test system of experiment [3] is RPMI-8226 leukemia.
The test system of experiment [4] is SF-295 CNS.
For experiment [5], the system named is UACC-62 melanoma.
The subject of experiment [6] is IGROV1 ovarian.
The test system of experiment [7] is A498 renal.
Experiment [8] concerns UACC-257 melanoma.
Experiment [9] deals with KM12 colon.
Experiment [10] deals with SK-OV-3 ovarian.
The test system of experiment [11] is NCI-H226 lung.
The subject of experiment [12] is UO-31 renal.
For experiment [13], the system named is SF-539 CNS.
The subject of experiment [14] is K-562 leukemia.
The subject of experiment [15] is CAKI-1 renal.
Experiment [16] relates to SF-268 CNS.
For experiment [17], the system named is NCI-H522 lung.
The subject of experiment [18] is A549 NSCLC.
The subject of experiment [19] is SK-MEL-28 melanoma.
Experiment [20] deals with ACHN renal.

For the molecule `Cc1cc2sc(C)[n+](CCCOS(=O)(=O)[O-])c2cc1C`, the TGI in experiment [1], in [2], in experiment [3], in experiment [4], in [5] and in experiment [6] was over 100 µM each time. Further, the TGI in experiment [7], in [8], in experiment [9], in experiment [10], in experiment [11] and in experiment [12] was over 100 µM each time. The TGI in experiment [13], in experiment [14], in experiment [15], in experiment [16], in [17] and in experiment [18] was over 100 µM throughout. The TGI in experiment [19] and in experiment [20] was over 100 µM in each case.
On to `C/C=C(\C)C(=O)OC1C(C)=C2C(C1OC(=O)CCCC)C(C)(OC(C)=O)CC(OC(=O)CCCC)C1(O)C2OC(=O)C1(C)O` (configuration not stated), for which the TGI in experiment [1] was 3.67 µM; in experiment [2] it was over 100 µM; in experiment [3], over 21.1 µM; in experiment [4] it was over 100 µM; in experiment [5], 13.2 µM; in [6], over 100 µM. Further, the TGI in [7] was over 100 µM; in experiment [8], over 100 µM; in experiment [9], over 42.5 µM; in experiment [10], over 100 µM; in experiment [11], over 25.8 µM; in experiment [12] it was 71.2 µM. For the same molecule, the TGI was over 100 µM in experiment [13]; over 100 µM in experiment [14]; over 92.2 µM in [15]; over 100 µM in experiment [16]; 7.02 µM in experiment [17]; over 100 µM in experiment [18]. Further, the TGI in [19] and in experiment [20] was over 100 µM each time.
Turning to `O=C(O)NCC1CCCCC1` (tested in a mixture with another compound), the TGI in [1] amounted to 33.8 µM; in experiment [2], 28.1 µM; in experiment [3] it was 9.73 µM; in experiment [4], 50.3 µM; in experiment [5], 34.2 µM; in [6], 23.3 µM. Besides, the TGI was 34.1 µM in experiment [7]; 63.2 µM in experiment [8]; 29.7 µM in experiment [9]; 41.2 µM in experiment [11]; over 100 µM in [12]; 35.9 µM in [14]. Moreover, the TGI was over 100 µM in experiment [15]; 38.4 µM in [16]; 28 µM in [17]; over 100 µM in experiment [18]; over 100 µM in experiment [19]; 48.1 µM in [20].
As for `OC(c1cc(-c2ccc(Cl)cc2)nc2ccccc12)C1CCCCN1` (configuration not stated), the TGI in [1] was determined as 3.13 µM; in experiment [2], 3.54 µM; in experiment [3] it was 3.12 µM; in experiment [4], 3.67 µM; in [5], 3.43 µM; in experiment [7] it was 3.54 µM. In addition, the TGI in experiment [8] came to 9.71 µM; in experiment [9], 5.42 µM; in experiment [10], 5.5 µM; in experiment [11] it was 39 µM; in experiment [12], 2.45 µM; in experiment [13] it was 3.52 µM. Further, the TGI in experiment [14] turned out to be 3.13 µM; in experiment [15], 6.44 µM; in [16], 4.51 µM; in experiment [17], 2.77 µM; in experiment [18], 3.53 µM; in [19], 3.53 µM. The TGI in experiment [20] was determined as 4.1 µM.
As to `C1CSC(=[N+]2CC[N+](=C3SCCS3)CC2)S1`, the TGI in experiment [1], in [2], in experiment [3], in [4], in experiment [5] and in experiment [6] was over 100 µM each time. Moreover, the TGI in [7], in experiment [8], in experiment [9], in [10], in experiment [12] and in experiment [13] was over 100 µM each time. In addition, the TGI in experiment [14], in experiment [15], in experiment [16], in [17], in experiment [18] and in experiment [19] was over 100 µM throughout. The same molecule yielded a TGI in experiment [20] of over 100 µM.
With `COC(=O)c1cc2cc3c(c(O)c2c(=O)o1)O[C@@]1(Oc2c(O)c4c(c(O)c2[C@H]1OC1CC(OC)C(O)C(C)O1)C(=O)C=C(OC)C4=O)[C@H](O)C3` (some centres not stated), the TGI in [1] is 5.37 µM; in [2], 12.1 µM; in experiment [3], 4.44 µM; in experiment [4] it was over 29.6 µM; in [5], 1.78 µM; in [6] it was 7.17 µM. Further, the TGI in experiment [8] is 14.1 µM; in [9], 9.51 µM; in experiment [10] it was 17 µM; in experiment [11] it was 17.1 µM; in experiment [12], over 30.4 µM; in [13] it was 1.97 µM. Further, the TGI came to 8.82 µM in [14]; 3.2 µM in experiment [15]; 5.19 µM in experiment [16]; 5.19 µM in experiment [17]; 1.91 µM in [19]; 9.19 µM in experiment [20].
Take `Nc1c(C(=O)Nc2ccc(C3=NCCN3)cc2)cccc1C(=O)Nc1ccc(C2=NCCN2)cc1`: the TGI in experiment [2], in experiment [3], in experiment [4], in experiment [5], in experiment [6] and in experiment [7] was over 100 µM each time. In addition, the TGI in experiment [8], in [9], in experiment [10], in experiment [11], in experiment [12] and in experiment [13] was over 100 µM each time. In addition, the TGI in experiment [14], in experiment [15], in experiment [16], in experiment [17], in [18] and in [19] was over 100 µM in each case.
